Results: article PMC5640878, “The GlyR Extracellular β8–β9 Loop – A Functional Determinant of Agonist Potency” (Frontiers in Molecular Neuroscience, 2017)
Where two headings read alike, the source gives them in different places.

Key:
GlyRα1^Q177K = settings: shaky mouse; ref Schaefer et al., 2017; cited from earlier work
GlyRα1^Q177Rβ = GlyRα1^Q177Rβ (UniProt P48167+Q64018, Q205R); test: whole-cell patch clamp recordings of transfected HEK293 cells
Procedure: (§3) HEK293 cells were transiently transfected using a modified calcium phosphate precipitation method. A mixture of plasmid DNA, CaCl2, 0.1x TE buffer and 2x HBS (50 mM HEPES, 12 mM glucose, 10 mM KCl, 280 mM NaCl, 1.5 mM Na2HPO4) was applied onto the cells. A GlyRα1 to GlyRβ ratio of 1:2 was used for co-expression. For GlyRα1:GlyRβ:GFP co-expression, a ratio of 1:2:1 was transfected. The same amount of DNA was used for GlyRα1 WT and mutants. Media were exchanged after 6–24 h. Immunocytochemical stainings and electrophysiological experiments were always done 24 h after transfection, biotinylation experiments were performed 48 h after transfection.
(§4) The patch clamp technique was used to measure current amplitudes (I) of transfected HEK293 cells. Currents were amplified using an EPC-9 amplifier and the software Patchmaster (HEKA, Lambrecht, Germany). Cells were patched 24 h after transfection in a whole-cell configuration mode. […] All agonist and antagonists were applied using an Octaflow II system (ALA Scientific Instruments, Farmingdale, NY, United States). The extracellular buffer consisted of (in mM): 137 NaCl, 5.4 KCl, 1.8 CaCl2, 1 MgCl2, 5 HEPES, pH adjusted to 7.4 with NaOH. The intracellular buffer contained (in mM): 120 CsCl, 20 N(Et)4Cl, 1 CaCl2, 2 MgCl2, 11 EGTA, 10 HEPES, pH adjusted to 7.2 with CsOH. Recording pipettes with an open resistance of 4–6 MΩ were manufactured from borosilicate capillaries using a P97 horizontal puller (Sutter Instrument, Novato, CA, United States). Cells were held at -60 mV and fast capacitances were in range of 11–13 pF. All experiments were performed at room temperature.
(§5) The following Hill equation was used: I = Imax ^∗ c^nHill/(c^nHill + EC50^nHill). I refers to the current amplitude at the given agonist concentration c, Imax is the current amplitude at a saturating agonist, EC50 refers to the agonist concentration evoking half-maximal current responses and nHill is the Hill coefficient.

GlyRα1^Q177Nβ = GlyRα1^Q177Nβ (UniProt P48167+Q64018, Q205N); test: as above
GlyRα1β WT = molecular target: T1, GlyRα1β WT (UniProt P48167+Q64018); test: as above; assay type: cell-based, murine
T1 construct: expressed in transfected cells; host or cells: HEK293
Procedure: (§1) Media were exchanged after 6–24 h.
(§2) All experiments were performed at room temperature.

GlyRα1^Q177Kβ = GlyRα1^Q177Kβ (UniProt P48167+Q64018, Q205K); test: as above
Procedure: as §3, §4, §5

GlyRα1^Q177β variants = settings: saturating glycine (1 mM); HEK293, whole-cell
Procedure: as §1, §2

GlyRα1^Q177Cβ = GlyRα1^Q177Cβ (UniProt P48167+Q64018, Q205C); test: whole-cell patch clamp recordings of transfected HEK293 cells
Procedure: as §3, §4, §5

GlyRα1^Q177Wβ = GlyRα1^Q177Wβ (UniProt P48167+Q64018, Q205W); test: as above
Procedure: as §3, §4, §5

GlyRα1^Q177Gβ = GlyRα1^Q177Gβ (UniProt P48167+Q64018, Q205G); test: as above
Procedure: as §3, §4, §5

[1] = test system: GlyR R65 mutated to lysine; settings: ref Grudzinska et al., 2005; cited from earlier work
GlyRα1^Q177Eβ = GlyRα1^Q177Eβ (UniProt P48167+Q64018, Q205E); test: whole-cell patch clamp recordings of transfected HEK293 cells
Procedure: as §3, §4, §5

GlyRα1^Q177Dβ = GlyRα1^Q177Dβ (UniProt P48167+Q64018, Q205D); test: as above
Procedure: as §3, §4, §5

[2] = test system: GlyR R65 mutated to alanine; settings: ref Grudzinska et al., 2005; cited from earlier work
GlyRα1^Q177Aβ = GlyRα1^Q177Aβ (UniProt P48167+Q64018, Q205A); test: whole-cell patch clamp recordings of transfected HEK293 cells
Procedure: as §3, §4, §5

[3] = 100 μM taurine, HEK293, whole-cell
[4] = 10 mM taurine, HEK293, whole-cell, mutant probably not completely saturated
[5] = Hill coefficient of taurine concentration-response curve
[6] = 100 μM glycine, HEK293, co-expressed with GlyRβ, whole-cell
[7] = Hill coefficient of glycine concentration-response curve
[8] = read-out: EC50 glycine, HEK293, α1:β 1:2, whole-cell currents, 1–3000 μM glycine
[9] = 100 μM β-alanine, HEK293, whole-cell
[10] = Hill coefficient of β-alanine concentration-response curve
[11] = saturating 10 mM β-alanine, HEK293, whole-cell

## O=C1C[C@@H]2OCC=C3CN4CC[C@]56c7ccccc7N1[C@H]5[C@H]2[C@H]3C[C@H]46 [strychnine]
GlyRα1^Q177K
  binding to the mutated receptor compared to GlyRα1 WT: bound with the same efficiency

## NCCS(=O)(=O)O [taurine]
GlyRα1^Q177Rβ; [3]
  agonist-induced inward current at 100 μM taurine: 0 ± 0 nA
GlyRα1^Q177Rβ; [4]
  absolute current amplitude at 10 mM taurine (efficacy): 3.1 ± 0.4 nA
GlyRα1^Q177Rβ; [5]
  nH taurine: 1.5
GlyRα1^Q177Rβ; human, hek293 cells
  increase of the EC50 for taurine compared to GlyRα1β WT: 5 fold
GlyRα1^Q177Nβ; [3]
  agonist-induced inward current at 100 μM taurine: 0.02 ± 0.001 nA
GlyRα1^Q177Nβ; [4]
  absolute current amplitude at 10 mM taurine (efficacy): 2.7 ± 0.5 nA
GlyRα1^Q177Nβ; [5]
  nH taurine: 1.6
GlyRα1^Q177Nβ; human, hek293 cells
  increase of the EC50 for taurine compared to GlyRα1β WT: 2.1 fold
GlyRα1β WT; [3]
  agonist-induced inward current at 100 μM taurine: 0.13 ± 0.06 nA
GlyRα1β WT; 10 mM taurine, HEK293, whole-cell
  absolute current amplitude at 10 mM taurine (efficacy): 5.7 ± 0.4 nA
GlyRα1β WT; HEK293, co-expressed with GlyRβ, whole-cell, 3–10000 μM taurine, read-out: EC50 taurine
  EC50: 593 ± 18 µM
GlyRα1β WT; [5]
  nH taurine: 2.3

## NCC(=O)O [glycine]
GlyRα1^Q177Kβ
  increase in glycine EC50 compared to GlyRα1β WT: 5.3 fold
GlyRα1^Q177Kβ; [6]
  Mean Igly 100 μM ± SEM: 0.6 ± 0.07^∗∗∗ nA
GlyRα1^Q177Kβ; [7]
  nH glycine: 2.2
GlyRα1^Q177Kβ; [8]
  EC50: 312 ± 7 µM
GlyRα1^Q177β variants
  Imax values in comparison to GlyRα1β WT: No significant differences
GlyRα1^Q177Cβ
  increase in glycine EC50 compared to GlyRα1β WT: 1.5 fold
GlyRα1^Q177Cβ; [6]
  Mean Igly 100 μM ± SEM: 1.8 ± 0.3 nA
GlyRα1^Q177Cβ; [7]
  nH glycine: 2.1
GlyRα1^Q177Rβ
  increase in glycine EC50 compared to GlyRα1β WT: 4 fold
GlyRα1^Q177Rβ; [6]
  Mean Igly 100 μM ± SEM: 0.8 ± 0.07 nA
GlyRα1^Q177Rβ; [7]
  nH glycine: 2.0
GlyRα1^Q177Rβ; [8]
  EC50: 231 ± 4 µM
GlyRα1^Q177K
  binding to the mutated receptor compared to GlyRα1 WT: bound with the same efficiency
GlyRα1^Q177Wβ
  increase in glycine EC50 compared to GlyRα1β WT: 2.2 fold
GlyRα1^Q177Wβ; [6]
  Mean Igly 100 μM ± SEM: 1.8 ± 0.3 nA
GlyRα1^Q177Wβ; [7]
  nH glycine: 3.7
GlyRα1^Q177Wβ; [8]
  EC50: 130 ± 12 µM
GlyRα1^Q177Gβ
  increase in glycine EC50 compared to GlyRα1β WT: 4.5 fold
GlyRα1^Q177Gβ; [6]
  Mean Igly 100 μM ± SEM: 0.3 ± 0.08 nA
GlyRα1^Q177Gβ; [7]
  nH glycine: 2.5
GlyRα1^Q177Gβ; [8]
  EC50: 262 ± 13 µM
[1]
  decrease in glycine EC50: 200 fold
GlyRα1^Q177Nβ
  increase in glycine EC50 compared to GlyRα1β WT: 1.6 fold
GlyRα1^Q177Nβ; [6]
  Mean Igly 100 μM ± SEM: 1.2 ± 0.2 nA
GlyRα1^Q177Nβ; [7]
  nH glycine: 3.0
GlyRα1^Q177Eβ
  increase in glycine EC50 compared to GlyRα1β WT: 1.8 fold
GlyRα1^Q177Eβ; [6]
  Mean Igly 100 μM ± SEM: 1.6 ± 0.2 nA
GlyRα1^Q177Eβ; [7]
  nH glycine: 2.6
GlyRα1^Q177Dβ
  increase in glycine EC50 compared to GlyRα1β WT: 2.3 fold
GlyRα1^Q177Dβ; [6]
  Mean Igly 100 μM ± SEM: 0.9 ± 0.3 nA
GlyRα1^Q177Dβ; [7]
  nH glycine: 3.4
GlyRα1^Q177Dβ; [8]
  EC50: 137 ± 4 µM
GlyRα1β WT; [6]
  Mean Igly 100 μM ± SEM: 3.8 ± 0.3 nA
GlyRα1β WT; [7]
  nH glycine: 1.9
GlyRα1β WT; [8]
  EC50: 58 ± 4 µM
[2]
  decrease in glycine EC50: 1250 fold
GlyRα1^Q177Aβ
  increase in glycine EC50 compared to GlyRα1β WT: 3.6 fold
GlyRα1^Q177Aβ; [6]
  Mean Igly 100 μM ± SEM: 0.8 ± 0.3 nA
GlyRα1^Q177Aβ; [7]
  nH glycine: 2.0
GlyRα1^Q177Aβ; [8]
  EC50: 208 ± 22 µM

## NCCC(=O)O [β-alanine]
GlyRα1^Q177Rβ
  EC50: 359 ± 19 µM
GlyRα1^Q177Rβ; [9]
  agonist-induced inward current at 100 μM β-alanine: 0.2 ± 0.07 nA
GlyRα1^Q177Rβ; [10]
  nH β-alanine: 1.9
GlyRα1^Q177Rβ; [11]
  absolute current amplitude at 10 mM β-alanine: 4.5 ± 0.9 nA
GlyRα1^Q177Nβ
  EC50: 203 ± 17 µM
GlyRα1^Q177Nβ; [9]
  agonist-induced inward current at 100 μM β-alanine: 0.87 ± 0.4 nA
GlyRα1^Q177Nβ; [10]
  nH β-alanine: 1.7
GlyRα1^Q177Nβ; [11]
  absolute current amplitude at 10 mM β-alanine: 4.1 ± 0.8 nA
GlyRα1β WT; [9]
  agonist-induced inward current at 100 μM β-alanine: 1.3 ± 0.3 nA
GlyRα1β WT; HEK293, co-expressed with GlyRβ, whole-cell, 3–10000 μM β-alanine, read-out: EC50 β-alanine
  EC50: 157 ± 7 µM
GlyRα1β WT; [10]
  nH β-alanine: 2.6
GlyRα1β WT; [11]
  absolute current amplitude at 10 mM β-alanine: 5.3 ± 2 nA
